Results as given in article PMC6244214, “Pd-Catalyzed microwave-assisted synthesis of phosphonated 13α-estrones as potential OATP2B1, 17β-HSD1 and/or STS inhibitors” (Beilstein Journal of Organic Chemistry, 2018).
Like-named read-outs stand apart in the source and are kept apart here.

Tests used:
human OATP2B1 = target: T1, human OATP2B1 (Homo sapiens, UniProt O94956); assay: Cascade Blue uptake assay of OATP2B1 transport activity; assay type: cell-based
T1 construct: expressed in transfected cells; host or cells: A431 cells
T1 sequence (O94956 1-709): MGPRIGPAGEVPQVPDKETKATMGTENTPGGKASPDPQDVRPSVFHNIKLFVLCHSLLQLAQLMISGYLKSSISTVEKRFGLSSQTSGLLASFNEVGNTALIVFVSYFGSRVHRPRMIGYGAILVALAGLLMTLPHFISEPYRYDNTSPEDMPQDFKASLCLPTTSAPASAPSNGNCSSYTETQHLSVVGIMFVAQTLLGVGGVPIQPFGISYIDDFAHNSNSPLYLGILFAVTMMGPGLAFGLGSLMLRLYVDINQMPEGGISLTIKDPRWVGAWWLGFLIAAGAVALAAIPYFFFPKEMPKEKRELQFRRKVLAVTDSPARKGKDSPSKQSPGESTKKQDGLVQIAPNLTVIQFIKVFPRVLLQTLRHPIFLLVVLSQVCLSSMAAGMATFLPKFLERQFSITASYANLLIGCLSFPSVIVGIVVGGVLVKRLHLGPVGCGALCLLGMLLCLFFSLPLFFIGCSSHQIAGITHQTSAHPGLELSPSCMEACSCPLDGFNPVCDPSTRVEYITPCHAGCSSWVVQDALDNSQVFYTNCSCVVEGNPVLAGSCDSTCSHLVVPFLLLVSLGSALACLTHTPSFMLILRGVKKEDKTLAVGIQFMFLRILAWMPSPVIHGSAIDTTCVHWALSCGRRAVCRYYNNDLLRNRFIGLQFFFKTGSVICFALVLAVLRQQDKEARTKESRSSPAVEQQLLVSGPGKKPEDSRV
Protocol: CascadeBlue assay.S1 A431 cells ([…] in 200 μl) overexpressing human OATP2B1 or transfected with the vector control were seeded on 96 well plates 16 hours prior to the transport measurement. Transport reaction was performed as described in.S1 Briefly, after washing the cells 3-times with 200 µl 1 × phosphate buffered saline (PBS) the cells were preincubated with test compounds in final concentrations from 0.03 to 50 µM or dimethyl sulfoxide (used as a solvent for the test compounds and serving as non-treated control) for 5 minutes at 37 °C. The reaction was started with the addition of 50 µl Cascade Blue (resulting in final concentration of 10 µM) and the cells were further incubated at 37 °C for 30 minutes.
The reaction was stopped by the addition of 200 µl ice-cold 1 × PBS, and after 3 washing steps the fluorescence remaining in the cells was determined by Enspire fluorescent plate reader (Perkin Elmer) at 400 nm excitation and 419 nm emission wavelengths. Transport activity was determined by subtracting fluorescence in mock transfected cells. Kinetics of inhibition was determined by Hill fit using the Origin 8.6 software. […]

[1] = target: T2, human placental steroid sulfatase (STS) (Homo sapiens, UniProt P08842); assay: STS in vitro radiosubstrate incubation (estrone-3-sulfate to estrone conversion); assay type: biochemical; conditions: relative conversion vs non-inhibited control (100%); test compound 10 μM; substrate E1S 1.0 μM; placental microsomes; n = 3; read-out: STS rel. conv. ± SD
T2 construct: from tissue; host or cells: human term placenta, microsomes
T2 sequence (P08842 22-583): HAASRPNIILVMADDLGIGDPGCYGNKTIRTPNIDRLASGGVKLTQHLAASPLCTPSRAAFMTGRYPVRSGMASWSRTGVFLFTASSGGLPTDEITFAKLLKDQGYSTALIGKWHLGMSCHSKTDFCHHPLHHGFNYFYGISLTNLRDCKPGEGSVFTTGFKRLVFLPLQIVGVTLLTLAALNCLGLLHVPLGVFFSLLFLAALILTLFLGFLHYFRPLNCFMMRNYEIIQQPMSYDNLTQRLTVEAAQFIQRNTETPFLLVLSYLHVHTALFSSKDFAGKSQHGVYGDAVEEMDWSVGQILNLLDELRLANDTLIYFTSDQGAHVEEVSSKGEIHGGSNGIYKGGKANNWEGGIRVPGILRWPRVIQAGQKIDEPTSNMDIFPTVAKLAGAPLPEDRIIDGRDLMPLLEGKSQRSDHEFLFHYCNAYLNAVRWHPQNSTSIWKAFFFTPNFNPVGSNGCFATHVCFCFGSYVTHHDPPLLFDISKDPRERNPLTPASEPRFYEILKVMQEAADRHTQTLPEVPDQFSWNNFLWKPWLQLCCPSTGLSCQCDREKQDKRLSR
Protocol: (§1) The ability of the synthesized compounds 8–13 to inhibit activity of steroid sulfatase (STS) and 17β-hydroxysteroid dehydrogenase type 1 (17β-HSD1) was examined. In vitro radiosubstrate incubations were performed with adapted literature methodsS2–4 and human placenta served as source of the enzymes. Radiolabelled steroids were obtained from American Radiolabeled Chemicals (St. Louis, MO, USA). Other chemicals and solvents of analytical grade purity were purchased from Sigma (St. Louis, MO, USA), from Fluka (Buchs, Switzerland) or from Merck (Darmstadt, Germany).
(§2) 3.2. Preparation of enzyme sources
(§3) Human term placentae were collected immediately after delivery and stored frozen at −80 °C.
(§4) Tissue specimens were homogenized with an Ultra-Turrax in 0.1 M HEPES buffer solution […]
(§5) (pH 7.3) containing 1 mM EDTA and 1 mM dithiotreitol, and cytosol and microsomas were obtained with fractionated centrifugation. Application of the human tissue was approved by the institutional Human Investigation Review Board.
(§6) 3.3. Incubation procedures
(§7) Enzymatic incubations were carried out in the HEPES buffer medium at a final volume of 200
(§8) µl. The substrate was added to the incubate in 20 μl of a 25 % v/v propylene glycol in HEPES buffer solution, whereas test compounds were applied in 10 μl of dimethyl sulfoxide solution.
Incubations were performed at 37 °C and terminated by cooling and the addition of organic solvents of the subsequent extraction procedure. Control samples with no inhibitor and blank samples were incubated simultaneously. The radioactivity of the products formed was measured by means of liquid scintillation counting (LSC) and taken as indicator of the […]
STS assays were performed using microsoma suspension and estrone-3-sulfate (E1S) substrate with [6,7-3H]estrone-3-sulfate tracer with incubations lasting for 20 min. Reactions were terminated by the addition of equal volume of methanol, and the product estrone (E1) was extracted with toluene.S4 […]
(§9) In the general procedure, incubations were performed as described. Concentrations of the substrates were 1.0 μM, and the test compounds were applied at 10 μM final concentration in the incubate. Relative conversions compared to non-inhibited controls (100%) were determined. The assays were performed in triplicate, and the mean value and the standard deviation (SD) were calculated.
(§10) In these cases, conversions were measured at 10–15 different concentrations in the appropriate interval between 0.001–50 μM. IC50 results were calculated by using unweighted iterative least squares logistic curve fitting by means of the “absolute IC50 calculation“ function of the GraphPad Prism 4.0 software (GraphPad Software, Inc., San Diego, CA, USA).

[2] = target: T3, 17β-hydroxysteroid dehydrogenase type 1 (17β-HSD1) (Homo sapiens, UniProt P14061); assay: 17β-HSD1 in vitro radiosubstrate incubation (estrone to 17β-estradiol conversion); assay type: biochemical; conditions: for remaining activity at 10 µM: read-out: 17β-HSD1 rel. conv. ± SD
T3 construct: from tissue; host or cells: human term placenta, cytosol
T3 sequence (P14061 1-328): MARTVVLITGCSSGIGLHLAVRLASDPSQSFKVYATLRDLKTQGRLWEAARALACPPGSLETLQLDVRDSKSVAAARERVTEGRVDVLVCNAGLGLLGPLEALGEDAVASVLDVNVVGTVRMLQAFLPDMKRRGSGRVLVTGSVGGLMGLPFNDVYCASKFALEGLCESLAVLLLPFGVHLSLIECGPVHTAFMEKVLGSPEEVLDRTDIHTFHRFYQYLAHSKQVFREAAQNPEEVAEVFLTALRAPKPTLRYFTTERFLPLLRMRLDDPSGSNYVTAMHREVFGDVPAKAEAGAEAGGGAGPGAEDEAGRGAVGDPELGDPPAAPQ
Protocol: as §1, §2, §3, §4, §5, §6, §7, §8
Incubations were performed at 37 °C and terminated by cooling and the addition of organic solvents of the subsequent extraction procedure. Control samples with no inhibitor and blank samples were incubated simultaneously. […]
In the 17β-HSD1 assays the cytosol was incubated using estrone (E1) substrate with [6,7-3H]estrone tracer and 0.1 mM NADPH cofactor excess. The incubation time was 2.5 min. The product 17β-estradiol (E2) was extracted with ethyl acetate and isolated by a TLC method.S5 […]
as §9, §10

[3] = A431 cells overexpressing human OATP2B1, Cascade Blue 10 μM, 30 min, 37 °C, read-out: OATP2B1 IC50 ± SD

Structure (SMILES)	IC50 (human OATP2B1)	remaining activity at 10 µM [1]	remaining activity at 10 µM [2]	IC50 [2]	IC50 ([2]; human placental cytosol, estrone 1.0 μM, 0.1 mM NADPH, read-out: 17β-HSD1 IC50 ± SD)	IC50 (human OATP2B1; [3])
CCOP(=O)(OCC)c1cc2c(cc1OC)CC[C@@H]1[C@@H]2CC[C@@]2(C)C(=O)CC[C@@H]12 [8a, diethyl (3-methoxy-13α-estra-1,3,5(10)-trien-17-on-2-yl)phosphonate]	1800 ± 300 nM	84 ± 4%	60 ± 3%	–	–	–
COc1cc2c(cc1P(=O)(c1ccccc1)c1ccccc1)[C@H]1CC[C@@]3(C)C(=O)CC[C@H]3[C@@H]1CC2 [8b, (3-methoxy-13α-estra-1,3,5(10)-trien-17-on-2-yl)diphenylphosphine oxide]	1200 ± 100 nM	80 ± 8%	–	4100 ± 1100 nM	–	–
CCOP(=O)(OCC)c1cc2c(cc1O)CC[C@@H]1[C@@H]2CC[C@@]2(C)C(=O)CC[C@@H]12 [9a, diethyl (3-hydroxy-13α-estra-1,3,5(10)-trien-17-on-2-yl)phosphonate]	2100 ± 200 nM	97 ± 5%	–	1500 ± 300 nM	–	–
C[C@@]12CC[C@@H]3c4cc(P(=O)(c5ccccc5)c5ccccc5)c(O)cc4CC[C@H]3[C@@H]1CCC2=O [9b, (3-hydroxy-13α-estra-1,3,5(10)-trien-17-on-2-yl)diphenylphosphine oxide]	2600 ± 200 nM	77 ± 10%	–	–	180 ± 60 nM	–
CCOP(=O)(OCC)c1cc2c(cc1OCc1ccccc1)CC[C@@H]1[C@@H]2CC[C@@]2(C)C(=O)CC[C@@H]12 [10a, diethyl (3-benzyloxy-13α-estra-1,3,5(10)-trien-17-on-2-yl)phosphonate]	200 ± 20 nM	85 ± 7%	64 ± 3%	–	–	–
C[C@@]12CC[C@@H]3c4cc(P(=O)(c5ccccc5)c5ccccc5)c(OCc5ccccc5)cc4CC[C@H]3[C@@H]1CCC2=O [10b, (3-benzyloxy-13α-estra-1,3,5(10)-trien-17-on-2-yl)diphenylphosphine oxide]	1000 ± 100 nM	85 ± 5%	73 ± 3%	–	–	–
CCOP(=O)(OCC)c1c(OC)ccc2c1CC[C@@H]1[C@@H]2CC[C@@]2(C)C(=O)CC[C@@H]12 [11a, diethyl (3-methoxy-13α-estra-1,3,5(10)-trien-17-on-4-yl)phosphonate]	2800 ± 1500 nM	93 ± 7%	100 ± 5%	–	–	–
COc1ccc2c(c1P(=O)(c1ccccc1)c1ccccc1)CC[C@@H]1[C@@H]2CC[C@@]2(C)C(=O)CC[C@@H]12 [11b, (3-methoxy-13α-estra-1,3,5(10)-trien-17-on-4-yl)diphenylphosphine oxide]	2500 ± 400 nM	80 ± 5%	106 ± 8%	–	–	–
CCOP(=O)(OCC)c1c(O)ccc2c1CC[C@@H]1[C@@H]2CC[C@@]2(C)C(=O)CC[C@@H]12 [12a, diethyl (3-hydroxy-13α-estra-1,3,5(10)-trien-17-on-4-yl)phosphonate]	1400 ± 100 nM	93 ± 6%	84 ± 4%	–	–	–
C[C@@]12CC[C@@H]3c4ccc(O)c(P(=O)(c5ccccc5)c5ccccc5)c4CC[C@H]3[C@@H]1CCC2=O [12b, (3-hydroxy-13α-estra-1,3,5(10)-trien-17-on-4-yl)diphenylphosphine oxide]	> 50000 nM	93 ± 4%	100 ± 5%	–	–	–
CCOP(=O)(OCC)c1c(OCc2ccccc2)ccc2c1CC[C@@H]1[C@@H]2CC[C@@]2(C)C(=O)CC[C@@H]12 [13a, diethyl (3-benzyloxy-13α-estra-1,3,5(10)-trien-17-on-4-yl)phosphonate]	300 ± 20 nM	87 ± 5%	92 ± 3%	–	–	–
C[C@@]12CC[C@@H]3c4ccc(OCc5ccccc5)c(P(=O)(c5ccccc5)c5ccccc5)c4CC[C@H]3[C@@H]1CCC2=O [13b, (3-benzyloxy-13α-estra-1,3,5(10)-trien-17-on-4-yl)diphenylphosphine oxide]	300 ± 20 nM	105 ± 7%	75 ± 2%	–	–	–
C[C@@]12CC[C@@H]3c4ccc(OCc5ccccc5)cc4CC[C@H]3[C@@H]1CCC2=O [13αE1OBn, reference compound]	–	–	–	–	–	1700 ± 900 nM
COc1ccc2c(c1)CC[C@@H]1[C@@H]2CC[C@@]2(C)C(=O)CC[C@@H]12 [13αE1OMe, reference compound]	–	–	–	–	–	3400 ± 300 nM
